In patent US20030162834A1, “Natural physiologically active material effective on fish diseases and fish food containing the material” (priority 1998, published 2003):

Experiments:
Heterobothrium okamotoi [1] = assay: Trial 1: in vitro immersion of oncomiracidia and gill-attached larvae in fatty acid seawater solutions; type: cell-based; conditions: 1 mM in seawater, 20 degrees centigrade
Method: (§1) Fatty acids having carbon number C2, C4 and C6-C10 were each dissolved in seawater at 1 mM concentration, and oncomiracidia of Heterobothrium okamotoi and larvae attaching to the gill were immersed in the seawater solutions. After 2 hours from the start of immersion, the efficacy of the fatty acids was investigated by counting the number of dead oncomiracidia and the number of larvae dropping down from the gill. More than 30 individuals of parasites were transferred to each group.
(§2) For any of the groups, the trial was made under condition of 20 degrees centigrade.

Cryptocaryon irritans [2] = assay: Trial 1: in vitro immersion of theronts in fatty acid seawater solutions; type: cell-based; conditions: 0.5 mM in seawater, 20 degrees centigrade; listed as C8
Method: (§3) For Cryptocaryon irritans, fatty acids having carbon number C2, C4 and C6-C10 were each dissolved in seawater at 0.5 mM concentration, and theronts of Cryptocaryon irritans were immersed in the seawater solutions. After 1 hour from the start of immersion, the efficacy of the fatty acids was investigated by counting the number of dead theronts. More than 200 individuals of parasites were transferred to each group.
as §2

[3] = tested on: parasites (Heterobothrium okamotoi, Cryptocaryon irritans); assay: Trial 1: overall statements on efficacy of fatty acids against parasites; type: cell-based; conditions: Trial 1 summary; C12 at a low concentration, not the same condition
Method: as §1, §3, §2

Heterobothrium okamotoi [4] = assay: Trial 3: oral octanoic acid, Heterobothrium okamotoi challenge trial on tiger puffer; type: in vivo; conditions: 2.5 g octanoic acid per 1 kg pellets
Method: Fish tested: Tiger puffer weighing approximately 133.6 g in average.
Trial groups: Two groups, i.e., an octanoic-acid added group in which fish were fed diets added with octanoic acid, and a control group in which fish were fed diets not added with octanoic acid. The feeding rate was 1% of fish weight/day for each group.
Trial diets: The diets added with octanoic acid were prepared by spraying 2.5 g of octanoic acid to 1 kg of commercially available pellets for tiger puffer. The control group fish were fed the commercially available pellets for tiger puffer.
Challenge trial: Each 12 pieces of fish (normal fish) from among a shoal of fish, in which no diseases such as Heterobothrium okamotoi infection were found, were put in a 100-liter water tank, and were fed the respective trial diets. After 7 days, 6 pieces of fish (infected fish), which had been infected in advance with approximately 100 individuals of Heterobothrium okamotoi, were added to each trial group. Then, bleeding was continued for 73 days while feeding the trial diets. In this trial, the parasites Heterobothrium okamotoi in the infected fish were in the stage of adult. After 30 days from adding the infected fish, 4 pieces of normal fish were sampled from each group, and the number of parasites attaching to the gill was counted. During the trial period, the water temperature was in the range of 16.5-20.9 degrees centigrade and the water was exchanged at 20 cycles/day.
Evaluation was made by comparing mortality of the fish in respective groups during the trial period, and by counting the number of parasites attaching to the gill of the infected fish in each group for investigation of the remedy efficacy and the infection preventable efficacy.

Cryptocaryon irritans [5] = assay: Trial 8: octanoic acid versus its monoglyceride and triglyceride, oral, red sea bream; type: in vivo; conditions: diet amount equal to 17.5 mM octanoic acid residues (2.5 g acid, 3.8 g monoglyceride, 2.7 g triglyceride per kg)
Excerpt: Fish tested: Red sea bream weighing approximately 15.8 g in average.
Trial groups: Four groups, i.e., an octanoic-acid added group in which fish were fed diets added with octanoic acid, a monoglyceride added group in which fish were fed diets added with monoglyceride of octanoic acid, a triglyceride added group in which fish were fed diets added with triglyceride of octanoic acid, and a control group in which fish were fed diets added with neither octanoic acid nor glycerides. The feeding rate was 3% of fish weight/day for each group.
Trial diets: The diets added with octanoic acid were prepared by spraying 2.5 g (17.5 mM with respect to the diet weight) of octanoic acid to 1 kg of commercially available pellets for red sea bream. […]. Specifically, the diets added with monoglyceride and triglyceride were prepared respectively by spraying 3.8 g of monoglyceride and 2.7 g of triglyceride to 1 kg of the commercially available pellets for red sea bream. The control group fish were fed the commercially available pellets for red sea bream.
Challenge trial: Each 10 pieces of fish from among a shoal of fish, in which no diseases such as Cryptocaryon irritans infection were found, were put in a 100-liter water tank, and were fed the respective trial diets. After 5 days, approximately 2000 individuals of theronts of Cryptocaryon irritans were put into each water tank to infect the fish while water flow was stopped for 1 hour. Then, bleeding was continued for 31 days while feeding the respective trial diets. During the trial period, the water temperature was 24+−1 degrees centigrade and the water was exchanged at 20 cycles/day.
Evaluation was made by sampling 5 pieces of fish from each group after 18 and 31 days from the start of the challenge, and comparing the number of the parasites attaching to the gill of each fish.

[6] = Trial 9: tolerance of tiger puffer to immersion in seawater containing octanoic acid; type: in vivo
Excerpt: Each group, i.e., 130 g of tiger puffer, was immersed in 2-liter seawater containing octanoic acid at 100 ppm, 200 ppm and 400 ppm, followed by observation.

Cryptocaryon irritans [7] = assay: Trial 10: immersion of infected tiger puffer in seawater containing octanoic acid; type: in vivo; conditions: 200 ppm for 2 minutes, 3 hours after return to seawater
Method: 300 g of tiger puffer infected with Cryptocaryon irritans was immersed in seawater containing 200 ppm of octanoic acid for 2 minutes, and then returned to seawater again. After 3 hours from return to seawater, the parasites Cryptocaryon irritans and their situations and numbers were observed.

CCCCCCCC(=O)O [octanoic acid]
emergence of dead oncomiracidia (Heterobothrium okamotoi [1]): emerged earliest
larvae dropping down from the gill (drop-down rate) (Heterobothrium okamotoi [1]; 2 hours): highest drop-down rate
emergence of dead theronts (Cryptocaryon irritans [2]): emerged earliest
efficacy against parasites [3]: most effective
number of parasites attaching to the normal fish after 30 days, versus control (Heterobothrium okamotoi [4]): apparently reduced
number of parasites (adults and larvae) attaching to infected fish survived at the end of the trial, versus control (Heterobothrium okamotoi [4]; 73 days): apparently reduced
numbers of parasites in normal fish survived at the end and fish died during the trial (Heterobothrium okamotoi [4]; 73 days): apparently reduced
adults attaching to each survived infected fish at the end of the trial (Heterobothrium okamotoi [4]; 73 days, approximately 100 at the start): approximately 27 individuals
survival rate of the infected fish at the end of the trial (Heterobothrium okamotoi [4]; 73 days, control 16.7%): 66.7%
survival rate of the normal fish (Heterobothrium okamotoi [4]; cohabitation with infected fish 73 days, control 0%): 75%
number of parasites attaching to the gill after 18 and 31 days, versus control (Cryptocaryon irritans [5]): apparently fewer
condition when returned to seawater ([6]; after immersion at 100 ppm): no abnormality
time to restore to a normal condition after return to seawater ([6]; after immersion at 200 ppm): approximately 30 minutes
time to restore to a normal condition after return to seawater ([6]; after immersion at 400 ppm, almost dying condition): approximately 60 minutes
observation of fish after 60 minutes ([6]; immersion, 100 ppm octanoic acid in seawater): a swimming activity of the fish was slightly lowered, but no abnormality was found in the fish
time at which fish began to lie down ([6]; immersion, 200 ppm): 60 min
time until swimming activity was apparently lowered ([6]; immersion, 200 ppm): 30 min
time at which fish became almost dying ([6]; immersion, 400 ppm): 9 min
time at which fish began to lie down ([6]; immersion, 400 ppm): 3 min
observation of fish returned to seawater ([6]; observed for 7 days after immersion): no abnormality was found
number of parasites attaching to the body surface (Cryptocaryon irritans [7]; before treatment 193/2 cm^2): 261 /2 cm^2
number of parasites attaching to the gill (Cryptocaryon irritans [7]; before treatment 624): 356 per branchial arch
body-surface parasites that showed movement and seemed still alive (Cryptocaryon irritans [7]; of 261): 9
gill parasites that showed movement and seemed still alive (Cryptocaryon irritans [7]; of 356): 193
